Target: T1, F508del (Homo sapiens, UniProt P13569, DEL508-508)
T1 construct: expressed in transfected cells
Assay: Protocol 1: membrane potential optical assay (FLIPR III, voltage sensing dye), identification of potentiator compounds
Type: cell-based
Settings: Table 3, compounds of Table 1
Outline: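 NIH3T3 F508del cells, 27° C × 24 hrs; compound/DMSO pretreat → redistribution dye load → single forskolin addition with Cl⁻ gradient (gluconate-substituted bath, HEPES pH 7.4). FLIPR III membrane-potential fluorescence read.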

T1 sequence (P13569 with tags, fused parts or gaps DEL508-508): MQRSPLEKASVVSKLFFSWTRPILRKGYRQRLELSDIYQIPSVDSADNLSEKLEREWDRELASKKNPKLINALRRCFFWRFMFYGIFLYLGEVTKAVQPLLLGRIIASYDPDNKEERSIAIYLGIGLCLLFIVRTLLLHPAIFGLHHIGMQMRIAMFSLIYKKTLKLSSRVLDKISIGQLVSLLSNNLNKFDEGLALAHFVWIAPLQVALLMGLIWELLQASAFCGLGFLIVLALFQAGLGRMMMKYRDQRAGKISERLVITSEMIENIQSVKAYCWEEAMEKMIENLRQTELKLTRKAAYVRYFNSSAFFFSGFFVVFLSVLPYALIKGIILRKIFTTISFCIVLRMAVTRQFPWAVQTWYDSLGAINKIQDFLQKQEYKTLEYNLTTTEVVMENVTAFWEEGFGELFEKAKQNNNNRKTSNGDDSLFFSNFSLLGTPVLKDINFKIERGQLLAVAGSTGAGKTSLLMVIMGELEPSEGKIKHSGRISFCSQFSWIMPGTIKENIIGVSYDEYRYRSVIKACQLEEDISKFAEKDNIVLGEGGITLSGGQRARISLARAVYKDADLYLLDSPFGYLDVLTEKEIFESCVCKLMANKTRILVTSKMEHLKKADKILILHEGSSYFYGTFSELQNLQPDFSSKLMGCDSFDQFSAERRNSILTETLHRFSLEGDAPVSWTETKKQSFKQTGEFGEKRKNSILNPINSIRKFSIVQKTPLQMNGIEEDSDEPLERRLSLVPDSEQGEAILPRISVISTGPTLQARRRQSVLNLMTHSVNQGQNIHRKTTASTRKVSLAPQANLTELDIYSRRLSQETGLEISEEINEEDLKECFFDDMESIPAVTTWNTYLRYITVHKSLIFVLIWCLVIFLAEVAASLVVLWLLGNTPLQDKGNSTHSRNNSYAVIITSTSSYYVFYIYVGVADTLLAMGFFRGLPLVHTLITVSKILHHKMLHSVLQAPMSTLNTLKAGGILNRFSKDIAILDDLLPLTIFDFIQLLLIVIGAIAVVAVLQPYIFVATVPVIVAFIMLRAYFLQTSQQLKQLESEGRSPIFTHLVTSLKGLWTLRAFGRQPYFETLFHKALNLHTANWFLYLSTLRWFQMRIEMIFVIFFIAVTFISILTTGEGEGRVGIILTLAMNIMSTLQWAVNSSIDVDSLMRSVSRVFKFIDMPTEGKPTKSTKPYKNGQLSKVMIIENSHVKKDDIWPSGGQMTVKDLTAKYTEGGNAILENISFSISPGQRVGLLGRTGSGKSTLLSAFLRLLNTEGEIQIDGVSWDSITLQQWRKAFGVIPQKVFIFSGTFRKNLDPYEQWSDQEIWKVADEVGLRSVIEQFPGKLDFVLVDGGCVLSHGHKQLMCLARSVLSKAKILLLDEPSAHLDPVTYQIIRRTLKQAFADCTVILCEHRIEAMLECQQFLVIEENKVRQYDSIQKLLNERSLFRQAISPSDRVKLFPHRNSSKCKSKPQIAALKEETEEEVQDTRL

Structure (SMILES) | EC30
CC1(C)CCCc2cc(C(=O)NS(=O)(=O)c3ccc(N)cc3)c(-c3ccccc3)nc21 [Compound 1190, N-(4-aminophenyl)sulfonyl-8,8-dimethyl-2-phenyl-6,7-dihydro-5H-quinoline-3-carboxamide] | +++ (“+++” means <3 uM)
COc1ncc(-c2ccc(C(=O)NS(=O)(=O)c3nccnc3N)c(N3CCC(C)CC3)n2)cc1C [Compound 1191, N-(3-aminopyrazin-2-yl)sulfonyl-6-(6-methoxy-5-methyl-3-pyridyl)-2-(4-methyl-1-piperidyl)pyridine-3-carboxamide] | ++ (“++” means between 3 uM and 10 uM)
CC(C)COc1cc(-c2ccc(C(=O)NS(=O)(=O)c3cccc(N)n3)c(N3CC(C)CC3(C)C)n2)ccn1 (centres unmarked) [Compound 1192, N-[(6-amino-2-pyridyl)sulfonyl]-6-(2-isobutoxy-4-pyridyl)-2-(2,2,4-trimethylpyrrolidin-1-yl)pyridine-3-carboxamide] | +++ (“+++” means <3 uM)
CC(C)COc1cc(F)cc(-c2ccc(C(=O)NS(=O)(=O)c3cccc(N)n3)c(N3CCC[C@H](C)C3)n2)c1 [Compound 1193, N-[(6-amino-2-pyridyl)sulfonyl]-6-(3-fluoro-5-isobutoxy-phenyl)-2-[(3S)-3-methyl-1-piperidyl]pyridine-3-carboxamide] | +++ (“+++” means <3 uM)
CC(C)COc1ccc(F)c(-c2ccc(C(=O)NS(=O)(=O)c3cccc(N)n3)c(N3CC(C)CC3(C)C)n2)c1 (centres unmarked) [Compound 1194, N-[(6-amino-2-pyridyl)sulfonyl]-6-(2-fluoro-5-isobutoxy-phenyl)-2-(2,2,4-trimethylpyrrolidin-1-yl)pyridine-3-carboxamide] | +++ (“+++” means <3 uM)
CC1CCN(c2nc3c(cc2C(=O)NS(=O)(=O)c2ccc[nH]c2=O)CCCC3(C)C)CC1 [Compound 1195, 8,8-dimethyl-2-(4-methyl-1-piperidyl)-N-[(2-oxo-1H-pyridin-3-yl)sulfonyl]-6,7-dihydro-5H-quinoline-3-carboxamide] | + (“+” means greater than 10 uM)
Cc1ccc(-c2ccc(C(=O)NS(=O)(=O)c3cccc(N)n3)c(NCC3(C)CCOCC3)n2)cc1 [Compound 1196, N-[(6-amino-2-pyridyl)sulfonyl]-2-[(4-methyltetrahydropyran-4-yl)methylamino]-6-(p-tolyl)pyridine-3-carboxamide] | ++ (“++” means between 3 uM and 10 uM)
CC(C)COc1cc(-c2ccc(C(=O)NS(=O)(=O)c3cccc(N)n3)c(N3[C@H](C)CC[C@@H]3C)n2)ccc1Cl [Compound 1197, N-[(6-amino-2-pyridyl)sulfonyl]-6-(4-chloro-3-isobutoxy-phenyl)-2-[(2S,5R)-2,5-dimethylpyrrolidin-1-yl]pyridine-3-carboxamide] | +++ (“+++” means <3 uM)
CC(C)Oc1ccc(-c2ccc(C(=O)NS(=O)(=O)c3cccc(N)n3)c(N3[C@H](C)CC[C@H]3C)n2)cn1 [Compound 1198, N-[(6-amino-2-pyridyl)sulfonyl]-2-[(2R,5R)-2,5-dimethylpyrrolidin-1-yl]-6-(6-isopropoxy-3-pyridyl)pyridine-3-carboxamide] | +++ (“+++” means <3 uM)
Cc1cc(C)c(Oc2nc3c(cc2C(=O)NS(=O)(=O)c2ccc[nH]c2=O)CCC(C)(C)C3)c(C)c1 [Compound 1199, 7,7-dimethyl-N-[(2-oxo-1H-pyridin-3-yl)sulfonyl]-2-(2,4,6-trimethylphenoxy)-6,8-dihydro-5H-quinoline-3-carboxamide] | ++ (“++” means between 3 uM and 10 uM)
CCOC1CCN(c2nc(C(C)(C)C)ccc2C(=O)NS(=O)(=O)c2cccc(N)n2)CC1 [Compound 1200, N-[(6-amino-2-pyridyl)sulfonyl]-6-tert-butyl-2-(4-ethoxy-1-piperidyl)pyridine-3-carboxamide] | ++ (“++” means between 3 uM and 10 uM)
Cc1cc(C)c(Oc2nc(-c3cc(OCC(C)C)ccc3Cl)ccc2C(=O)NS(=O)(=O)c2ccc[nH]c2=O)c(C)c1 [Compound 1201, 6-(2-chloro-5-isobutoxy-phenyl)-N-[(2-oxo-1H-pyridin-3-yl)sulfonyl]-2-(2,4,6-trimethylphenoxy)pyridine-3-carboxamide] | +++ (“+++” means <3 uM)
CCCOc1ccc(-c2ccc(C(=O)NS(=O)(=O)c3ccc[nH]c3=O)c(Oc3c(C)cc(C)cc3C)n2)cc1 [Compound 1202, N-[(2-oxo-1H-pyridin-3-yl)sulfonyl]-6-(4-propoxyphenyl)-2-(2,4,6-trimethylphenoxy)pyridine-3-carboxamide] | +++ (“+++” means <3 uM)
CCOc1ccc(-c2ccc(C(=O)NS(=O)(=O)c3nccnc3N)c(NCC3(C)CCOCC3)n2)cc1 [Compound 1203, N-(3-aminopyrazin-2-yl)sulfonyl-6-(4-ethoxyphenyl)-2-[(4-methyltetrahydropyran-4-yl)methylamino]pyridine-3-carboxamide] | + (“+” means greater than 10 uM)
Cc1cc(C)c(Oc2nc(-c3ccc(O)cc3C)ccc2C(=O)NS(=O)(=O)c2cccc(N)n2)c(C)c1 [Compound 1204, N-[(6-amino-2-pyridyl)sulfonyl]-6-(4-hydroxy-2-methyl-phenyl)-2-(2,4,6-trimethylphenoxy)pyridine-3-carboxamide] | + (“+” means greater than 10 uM)
CC(C)COc1cc(F)cc(-c2ccc(C(=O)NS(=O)(=O)c3cccc(N)n3)c(N(C)C(C)c3cccc(Cl)c3)n2)c1 (centres unmarked) [Compound 1205, N-[(6-amino-2-pyridyl)sulfonyl]-2-[1-(3-chlorophenyl)ethyl-methyl-amino]-6-(3-fluoro-5-isobutoxy-phenyl)pyridine-3-carboxamide] | +++ (“+++” means <3 uM)
CC(C)Oc1ccc(-c2ccc(C(=O)NS(=O)(=O)c3cccc(N)n3)c(N3CCC(C(C)(C)C)C3)n2)cn1 (centres unmarked) [Compound 1206, N-[(6-amino-2-pyridyl)sulfonyl]-2-(3-tert-butylpyrrolidin-1-yl)-6-(6-isopropoxy-3-pyridyl)pyridine-3-carboxamide] | ++ (“++” means between 3 uM and 10 uM)
Cc1cc(C)c(Oc2nc(-c3ccc4c(c3)OCO4)ccc2C(=O)NS(=O)(=O)c2cccc(N)n2)c(C)c1 [Compound 1207, N-[(6-amino-2-pyridyl)sulfonyl]-6-(1,3-benzodioxol-5-yl)-2-(2,4,6-trimethylphenoxy)pyridine-3-carboxamide] | +++ (“+++” means <3 uM)
Cc1cc(C)c(Oc2nc(C(C)(C)C)ccc2C(=O)NS(=O)(=O)c2nccnc2N)c(C)c1 [Compound 1208, N-(3-aminopyrazin-2-yl) sulfonyl-6-tert-butyl-2-(2,4,6-trimethylphenoxy)pyridine-3-carboxamide] | +++ (“+++” means <3 uM)
CC(C)Oc1ccc(-c2ccc(C(=O)NS(=O)(=O)c3cccc(N)n3)c(N3CCC[C@H](c4ccccc4)C3)n2)cn1 [Compound 1209] | +++ (“+++” means <3 uM)
CC(C)COc1cc(F)cc(-c2ccc(C(=O)NS(=O)(=O)c3cccc(N)n3)c(N3C[C@@H](C)C[C@H](C)C3)n2)c1 [Compound 1210, N-[(6-amino-2-pyridyl)sulfonyl]-2-[(3S,5S)-3,5-dimethyl-1-piperidyl]-6-(3-fluoro-5-isobutoxy-phenyl)pyridine-3-carboxamide] | +++ (“+++” means <3 uM)
C=C(C)c1ccc(C(=O)NS(=O)(=O)c2cccc(N)n2)c(Oc2c(C)cc(C)cc2C)n1 [Compound 1211, N-[(6-amino-2-pyridyl)sulfonyl]-6-isopropenyl-2-(2,4,6-trimethylphenoxy)pyridine-3-carboxamide] | ++ (“++” means between 3 uM and 10 uM)
COc1ccc(-c2ccc(C(=O)NS(=O)(=O)c3cccc(N)n3)c(Oc3c(C)cc(C)cc3C)n2)c(C)n1 [Compound 1212, N-[(6-amino-2-pyridyl)sulfonyl]-6-(6-methoxy-2-methyl-3-pyridyl)-2-(2,4,6-trimethylphenoxy)pyridine-3-carboxamide] | +++ (“+++” means <3 uM)
Cc1ccc(Oc2nc(-c3cc(F)cc(OC(C)C)c3)ccc2C(=O)NS(=O)(=O)c2cc[nH]n2)c(C)c1 [Compound 1213, 2-(2,4-dimethylphenoxy)-6-(3-fluoro-5-isopropoxy-phenyl)-N-(1H-pyrazol-3-ylsulfonyl)pyridine-3-carboxamide] | ++ (“++” means between 3 uM and 10 uM)
CCOC1CCN(c2nc(-c3ccc(OC(C)C)nc3)ccc2C(=O)NS(=O)(=O)c2cccc(N)n2)CC1 [Compound 1214, N-[(6-amino-2-pyridyl)sulfonyl]-2-(4-ethoxy-1-piperidyl)-6-(6-isopropoxy-3-pyridyl)pyridine-3-carboxamide] | ++ (“++” means between 3 uM and 10 uM)
COc1ccc(-c2ccc(C(=O)NS(=O)(=O)c3cccc(N)n3)c(N3[C@H](C)CC[C@@H]3C)n2)cc1 [Compound 1215, N-[(6-amino-2-pyridyl)sulfonyl]-2-[(2S,5R)-2,5-dimethylpyrrolidin-1-yl]-6-(4-methoxyphenyl)pyridine-3-carboxamide] | ++ (“++” means between 3 uM and 10 uM)
CC(C)COc1cc(F)cc(-c2ccc(C(=O)NS(=O)(=O)c3cccc(N)n3)c(O[C@@H]3C[C@H]4CC[C@@H]3C4)n2)c1 [Compound 1216, N-[(6-amino-2-pyridyl)sulfonyl]-6-(3-fluoro-5-isobutoxy-phenyl)-2-[(1R,2R,4S)-norbornan-2-yl]oxy-pyridine-3-carboxamide] | +++ (“+++” means <3 uM)
CC(C)(C)c1ccc(C(=O)NS(=O)(=O)c2cccc(N)c2)c(-c2ccc(F)c(F)c2)n1 [Compound 1217, N-(3-aminophenyl)sulfonyl-6-tert-butyl-2-(3,4-difluorophenyl)pyridine-3-carboxamide] | + (“+” means greater than 10 uM)
CCC1CCCN1c1nc(-c2cc(F)cc(OCC(C)C)c2)ccc1C(=O)NS(=O)(=O)c1cccc(N)n1 (centres unmarked) [Compound 1218, N-[(6-amino-2-pyridyl)sulfonyl]-2-(2-ethylpyrrolidin-1-yl)-6-(3-fluoro-5-isobutoxy-phenyl)pyridine-3-carboxamide] | +++ (“+++” means <3 uM)

— patent publication US10758534B2 (Vertex Pharmaceuticals Incorporated, priority 2014, dated 2020)
